Measurements: US5721231A, “Thienotriazolodiazepine compound and pharmaceutical use thereof” (Yoshitomi Pharmaceutical Industries, Ltd., priority 1993, dated 1998)

Assays:
[1] = test system: CD11b expression in U937 cells; assay: Effect on CD11b expression in human histiocytic leukemia cell line U937; type: cell-based; settings: U-937, 72 h, PDB 10 ng/ml, 3 days, read-out: Inhibitory effect on CD11b expression (IC50)
Experimental: Effect on the expression of CD11b antigen, which constitutes the a chain of Mac-1, one of the adhesion molecules expressed on the surface of leukocytic cells, was investigated. U937 cells were suspended in RPMI1640 medium containing 20% fetal calf serum, plated with phorbol 12,13-dibutyrate (PDB, 10 ng/ml) and Compound A or Compound B into 96-well filtration plates (30,000 cells/well), and cultured for 3 days at 37° C. in 5% CO2. After the cells were washed once with RPMI1640 medium, rat anti-human CD11b monoclonal antibody (2 μg/ml) was added and the plates were kept for 1 hour on ice. After the cells were washed twice, peroxidase-conjugated anti-rat immunoglobulin antibody (1 μg/ml) was added, and the cells were kept for 1 hour on ice. After the cells were washed 3 times, o-phenylenediamine was added as a substrate for peroxidase. The plates were allowed to stand for 15 minutes at room temperature, and absorbance at 490 nm was measured with a 96-well plate reader. The absorbance was regarded as an indicator of CD11b antigen expression.

[2] = test system: VCAM-1 expression in HUVECs; assay: Inhibitory effect on expression of VCAM-1 in human umbilical vein-derived endothelial cells (HUVECs); type: cell-based
Experimental: HUVECs were suspended in 199 medium (Biocell Laboratories, Inc., Rancho Dominguez, Calif. USA) containing 20% fetal calf serum, 20 μg/ml endothelial cell growth factor derived from bovine brain and 100 μg/ml heparin, plated into 96-well microculture plates coated with collagen, and cultured at 37° C. in 5% CO2. When cells were grown to confluence, the cells received tumor necrosis factor-α (100 U/ml) and the test compound A, and cultured for 5 hours. After the cells were washed once with 199 medium, mouse anti-human VCAM-1 monoclonal antibody (2 μg/ml) was added, and the cells were incubated for 1 hour at room temperature. After the cells were washed twice, peroxidase-conjugated anti-mouse immunoglobulin antibody was added, and the cells were incubated for 1 hour at room temperature. After the cells were washed 3 times, a substrate for peroxidase, 2,2'-azino-bis(3-ethylbenzothiazolone-6-sulfonicacid), was added. After the plates were stood for 15 minutes at room temperature, absorbance at 405 nm with a reference wave length of 490 nm was measured with a 96-well microplate reader and was regarded as an indicator of VCAM-1 expression.

[3] = test system: Oxazolone-induced ear edema in mice; assay: Oxazolone-induced ear edema in mice (intradermal administration, Experimental Example 2); type: in vivo, mouse
Experimental: […] On day 7, 5 μl of oxazolone solution was applied to each surface of the right ear. After 24 hours (day 8), the right and left ears were cut out with a puncher of 6 mm in diameter and weighed with an electronic reading balance. The difference in weight between the oxazolone-treated ear (right) and untreated ear (left) was taken to reflect the degree of ear edema. Compound A was dissolved in 20% 2-hydroxypropyl-β-cyclodextrinsolution containing 1% dimethyl sulfoxide and injected intradermally into the mouse right ear (25 μl/site) on day 7 (immediately before application of oxazolone).

[4] = test system: Picryl chloride-induced ear edema in mice; assay: Picryl chloride-induced ear edema in mice (Experimental Example 3); type: in vivo, mouse; settings: cyclophosphamide +, 10 μl/site intradermal, control 10.8 ± 1.3
Experimental: Cyclophosphamide (150 mg/kg) was administered subcutaneously to mice on day -2. The mice were sensitized twice by applying 50 μl of picryl chloride solution (70 mg/ml in ethanol) to their shaved abdomen on days 0 and 1. On day 13, 10 μl of picryl chloride solution (10 mg/ml in ethanol) was applied to each surface of the right ear. Two days later (on day 15), the right and left ears were cut out with a puncher of 6 mm in diameter and weighed with an electronic reading balance. The difference in weight between the treated (right) ear and the untreated (left) ear was taken as an indicator of edema. […] […] The group treated with cyclophosphamide and picryl chloride was taken as a control, and statistical significance was evaluated by Dunnett's test.

[5] = test system: TDI-induced rhinitis in guinea pig; assay: Tolylene 2,4-diisocyanate (TDI)-induced rhinitis in guinea pig (Experimental Example 4); type: in vivo; settings: for Number of leukocytes, mean ± S.D.: sensitized, control 20.0 ± 2.04, p < 0.01
Experimental: Guinea pigs (three to six per group) were sensitized by applying a mixture of TDI and ethyl acetate (1:7) with cotton buds to both of their nasal cavities under anesthetization with diethyl ether on days 0 to 3 and days 7 to 10. On days 27, 29, 31 and 35, the reaction of the guinea pigs was challenged by applying the same mixture to the nasal cavities in a similar manner as described above. Three hours after the last challenge, the guinea pigs were anesthetized with pentobarbital (30 mg/kg, i.p.), and the nasal cavities were washed with physiological saline. Number of leukocytes in the fluid obtained above was counted with an automatic blood cell counter. Compound A (0.1, 1 or 10 μg/20 μl/site×2/guinea pig) was dissolved in 20% hydroxypropyl-β-cyclodextrin solution containing 1% dimethyl sulfoxide and injected into the both nasal cavities of guinea pigs 1 hour before the last challenge (on day 35).

[6] = test system: Antigen (egg albumin)-induced eosinotaxis in lung of guinea pigs; assay: Inhibitory effect on topical eosinotaxis in lung induced by antigen (Experimental Example 5); type: in vivo, guinea pig (male Hartley)
Experimental: Male Hartley guinea pigs (4 weeks old, Japan SLC) were bred under the homoiothermal (23±2° C.) and homohumidity (55±5%) conditions.
Compound A was dissolved in 20% 2-hydroxypropyl-β-cyclodextrin containing 1% dimethyl sulfoxide to a concentration of 0.01%.
Antigen (egg albumin, Sigma, 10 mg/ml in saline) was nebulized on guinea pigs for 10 minutes with an ultrasonic nebulizer (NE-U12, OMRON CORPORATION). One week later, the antigen was nebulized again in the same manner.
At one week after the second antigen inhalation, mepyramine (Sigma, 10 mg/ml in saline) was intraperitoneally administered by 1 ml/kg. Twenty minutes later, a solution of Compound A (0.01%) or the medium (control) was nebulized for 10 minutes with a jet nebulizer (Nippon Shoji, Ltd.). Immediately thereafter, the antigen (egg albumin, 10 mg/ml) was nebulized for 5 minutes with an ultrasonic nebulizer. Five hours later, the solution of Compound A (0.01%) or the medium was nebulized again for 10 minutes with a jet nebulizer. […] At 24 hours after the antigen nebulizing, the lung was washed three times with physiological saline (10 ml, 37° C.), and the total number of the cells in the collected lung washings was counted by a colter counter (MEK 4200, Nippon Koden). […] The number of eosinophils was calculated from the ratio of existing cells and the total cell number.

[7] = test system: Adhesion of guinea pig peritoneal cells to HUVECs; assay: Cell adhesion of guinea pig peritoneal cells to human umbilical vein-derived endothelial cells (HUVECs); type: cell-based
Experimental: HUVECs were suspended in 199 medium containing 20% fetal calf serum, 20 μg/ml endothelial cell growth factor derived from bovine brain and 100 μg/ml heparin, plated into 96-well microculture plates coated with collagen, and cultured at 37° C. in 5% CO2. When cells were grown to confluence, interleukin 1 (10 U/ml) was added, and the cells were cultured for 24 hours. After the cells were washed once with 199 medium, leukotriene B4 (1 μM), Compound A and guinea pig peritoneal cells [300,000 cells/well, obtained by intraperitoneally injecting 0.1% oyster glycogen (25 ml) and recovering 5 hours later] were added, and the cells were incubated for 30 minutes at 37° C. in 5% CO2. After nonadherent cells were removed by inverting the plates, rose bengal solution (0.25% in phosphate-buffered physiological saline) was added and the plates were kept still for 5 minutes. The cells were washed twice with 199 medium. Ethanol (50% in phosphate-buffered physiological saline) was added (200 μl/well) and the cells were kept still for 30 minutes to allow the leakage of rose bengal dye incorporated into the cells. Absorbance at 520 nm was measured with a 96-well plate reader and the value obtained by subtracting absorbance of the well Containing HUVECs alone was taken as an indicator of cell adhesion.

[8] = test system: Oxazolone-induced ear edema in mice; assay: Oxazolone-induced ear edema in mice (oral administration, Experimental Example 8); type: in vivo, mouse; settings: for Ear edema (right ear-left ear), mean ± S.D.: sensitized, days 0 to 8, control 17.6 ± 1.1, p < 0.01
Experimental: Mice were sensitized by applying 50 μl of oxazolone solution (50 mg/ml in acetone) to their shaved abdomen on day 0. On day 7, 5 μl of oxazolone was applied to each surface of the right ear. After 24 hours, the right and left ears were cut out with a puncher of 6 mm in diameter and weighed with an electronic reading balance. The difference in weight between the treated ear (right) and untreated ear (left) was taken to reflect the degree of ear edema. Compound A was suspended in 0.5% methylcellulose solution and administered orally (0.1 ml/10 g body weight) on days 0 to 8.

SMILES: COc1ccccc1NC(=O)NC1N=C(c2ccc(Cl)cc2)c2c(sc(C)c2C)-n2c(C)nnc21 (single isomer, unassigned; (-)) [Compound B, (-)-N-(4-(4-chlorophenyl)-2,3,9-trimethyl-6H-thieno[3,2-f][1,2,4]triazolo[4,3-a][1,4]diazepin-6-yl)-N'-(2-methoxyphenyl)urea]
- IC50 [1]: 63 nM

SMILES: COc1ccccc1NC(=O)NC1N=C(c2ccc(Cl)cc2)c2c(sc(C)c2C)-n2c(C)nnc21 (racemic) [Compound A, N-(4-(4-chlorophenyl)-2,3,9-trimethyl-6H-thieno[3,2-f][1,2,4]triazolo[4,3-a][1,4]diazepin-6-yl)-N'-(2-methoxyphenyl)urea]
- Inhibition of expression of VCAM-1 on HUVEC (in words) [2]: inhibited expression of VCAM-1 on HUVEC in a concentration-dependent manner
- inhibition at 1 pM ([2]; Homo sapiens, HUVEC, Compound A 1 pM, TNF-α 100 U/ml, 5 hours): 19.7%
- inhibition at 10 pM ([2]; Homo sapiens, HUVEC, Compound A 10 pM, TNF-α 100 U/ml, 5 hours): 67.1%
- inhibition at 0.0001 µM ([2]; Homo sapiens, HUVEC, Compound A 100 pM, TNF-α 100 U/ml, 5 hours): 82.3%
- inhibition at 0.001 µM ([2]; Homo sapiens, HUVEC, Compound A 1000 pM, TNF-α 100 U/ml, 5 hours): 80.8%
- Inhibition of ear edema (in words) ([3]; intradermal administration): inhibited ear edema in sensitized or unsensitized mice in a dose-dependent manner
- Ear edema (right ear-left ear), mean ± S.D. ([3]; sensitized, 1 μg/site intradermal, control 16.8 ± 0.7, p < 0.01): 15.0 ± 0.6 mg
- Ear edema (right ear-left ear), mean ± S.D. ([3]; sensitized, 10 μg/site intradermal, control 16.8 ± 0.7, p < 0.01): 13.3 ± 0.7 mg
- Ear edema (right ear-left ear), mean ± S.D. ([3]; unsensitized, 1 μg/site intradermal, control 7.7 ± 1.6, p < 0.05): 5.7 ± 1.1 mg
- Ear edema (right ear-left ear), mean ± S.D. ([3]; unsensitized, 10 μg/site intradermal, control 7.7 ± 1.6, p < 0.05): 5.3 ± 0.7 mg
- Ear edema (right ear-left ear), mean ± S.D. [4]: 7.8 ± 0.4 mg
- Inhibition of leukocyte infiltration (in words) ([5]; administration into the nasal cavity): inhibited the leukocyte infiltration in TDI-induced guinea pig rhinitis dose-dependently
- Number of leukocytes, mean ± S.D. ([5]; 0.1 μg/site into nasal cavities): 12.7 ± 1.41 ×100 cells/μl
- Number of leukocytes, mean ± S.D. ([5]; 1 μg/site into nasal cavities): 7.1 ± 1.19 ×100 cells/μl
- Number of leukocytes, mean ± S.D. ([5]; 10 μg/site into nasal cavities): 2.8 ± 0.17 ×100 cells/μl
- Number of eosinophils (×10^6) ([6]; 0.01% solution nebulized, lung washings 24 hours after antigen, control 20.7 ± 2.95, p < 0.05): 8.9 ± 3.7 ×10^6
- Eosinophil in lung washings (in words) ([6]; inhalation, 0.01%): significant decrease in eosinophil in lung washings
- IC50 [1]: 250 nM
- Inhibition of adhesion of guinea pig peritoneal cells (in words) [7]: inhibited adhesion of guinea pig peritoneal cells to vascular endothelial cells in a concentration-dependent manner
- inhibition at 0.01 µM ([7]; Cavia porcellus, HUVEC, Compound A 0.01 μM, leukotriene B4 1 μM): -4.7%
- inhibition at 0.1 µM ([7]; Cavia porcellus, HUVEC, Compound A 0.1 μM, leukotriene B4 1 μM): 32.6%
- inhibition at 1 µM ([7]; Cavia porcellus, HUVEC, Compound A 1 μM, leukotriene B4 1 μM): 95.5%
- inhibition at 10 µM ([7]; Cavia porcellus, HUVEC, Compound A 10 μM, leukotriene B4 1 μM): 97.9%
- IC50 ([7]; Cavia porcellus, HUVEC, leukotriene B4 1 μM, read-out: concentration necessary for 50% inhibition (IC50 values, μM) of adhesion): ~0.2 µM
- Cell adhesion (absorbance at 520 nm) ([7]; Compound A 0.01 μM, leukotriene B4 1 μM): 0.222 absorbance at 520 nm
- Cell adhesion (absorbance at 520 nm) ([7]; Compound A 0.1 μM, leukotriene B4 1 μM): 0.169 absorbance at 520 nm
- Cell adhesion (absorbance at 520 nm) ([7]; Compound A 1 μM, leukotriene B4 1 μM): 0.080 absorbance at 520 nm
- Cell adhesion (absorbance at 520 nm) ([7]; Compound A 10 μM, leukotriene B4 1 μM): 0.077 absorbance at 520 nm
- Inhibition of ear edema (in words) ([8]; oral administration): inhibited ear edema in mice in a dose-dependent manner
- Ear edema (right ear-left ear), mean ± S.D. ([8]; oral 10 mg/kg/day): 16.0 ± 0.7 mg
- Ear edema (right ear-left ear), mean ± S.D. ([8]; oral 30 mg/kg/day): 15.4 ± 0.5 mg
- Ear edema (right ear-left ear), mean ± S.D. ([8]; oral 100 mg/kg/day): 14.4 ± 0.5 mg
